Patent US4873253A, “Phenylalanine derivative and proteinase inhibitor” (Okamoto; Shosuke, priority 1987, dated 1989)
Structures can show the parent of a compound that is named as a salt. Where two headings read alike, the source gives them in different places.

Key:
bovine thrombin [1] = molecular target: T1, bovine thrombin (Bos taurus, UniProt P00735); assay: Antithrombin activity: inhibition of S-2238 decomposition; assay type: biochemical; conditions: Table 2; substrate S-2238, pH 8.3, 37° C.; read-out: Thrombin S-2238 I50
T1 construct: a 0.2 unit/ml bovine thrombin solution
Method: An inhibitor sample is dissolved in a 0.05 M Tris-hydrochloric acid buffer solution (pH=8.3) to make a total volume of 400 μl. […] Thus, the concentration I50 (μmol) of the inhibitor sample at which the absorbance is one half (i.e., 1/2) of that obtained in the absence of the inhibitor sample, is determined.

bovine thrombin [2] = molecular target: T1, bovine thrombin; assay: Antithrombin activity: inhibition of fibrin formation (fibrinogen); assay type: biochemical
Method: (i) Determination of inhibition activity against fibrin formation
An inhibitor sample is dissolved in a 0.18 M borate-physiological salt buffer solution (pH= 7.4) to make the total volume to 500 μl. […] Thus, a coagulation time is determined. The inhibitor concentration I50 (μmol), at which the coagulation time obtained in the absence of the inhibitor is extended twice, is determined.

bovine trypsin = molecular target: T2, bovine trypsin (Bos taurus, UniProt P00760); assay: Antitrypsin activity: inhibition of S-2238 decomposition; assay type: biochemical; conditions: Table 2; substrate S-2238, pH 8.1, 37° C.; read-out: Trypsin S-2238 I50
T2 sequence (P00760 24-246): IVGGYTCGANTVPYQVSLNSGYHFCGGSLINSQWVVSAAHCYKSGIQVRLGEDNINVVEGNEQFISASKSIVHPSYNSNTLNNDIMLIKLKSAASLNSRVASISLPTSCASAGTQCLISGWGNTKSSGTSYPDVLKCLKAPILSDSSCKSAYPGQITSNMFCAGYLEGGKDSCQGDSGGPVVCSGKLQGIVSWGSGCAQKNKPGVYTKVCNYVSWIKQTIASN
Method: Determination of inhibition activity against S-2238 decomposition
An inhibitor sample is dissolved in a 0.05 M Tris-imidazole buffer solution (pH=8.1) and 125 μl of a 1 mM S-2238 solution is added to make the total volume to 1.20 ml. The mixture is incubated at a temperature of 37° C. for 5 minutes in a constant temperature bath. To this mixture, 0.05 ml of bovine trypsin is added and the absorbance, at 405 nm, of the p-nitroaniline formed per minute is determined at a temperature of 37° C. by using the so-called initial velocity method. Thus, the concentration I50 (μmol) of a inhibitor sample, at which the absorbance is one half (i.e., 1/2) of that obtained in the absence of the inhibitor sample, is determined.

human plasmin [3] = molecular target: T3, human plasmin (Homo sapiens, UniProt P00747); assay: Antiplasmin activity: inhibition of S-2251 decomposition; assay type: biochemical; conditions: Table 2; substrate S-2251, pH 7.4, 37° C.
Method: An inhibitor sample is dissolved in a 0.05 M Tris-hydrochloric acid buffer solution (pH=7.4) to make the total volume to 400 μl. […] Then, 50 μl of a 0.2 casein unit/ml human plasmin is added and the mixture is incubated at a temperature of 37° C. for 4 minutes. Thereafter, the reaction is stopped by adding 50 μl of 50% acetic acid.
Thus, the concentration I50 (μmol) of the inhibitor sample, at which the absorbance is one half (i.e., 1/2) of that obtained in the absence of the inhibitor, is determined.

human plasmin [4] = molecular target: T3, human plasmin; assay: Antiplasmin activity: inhibition of fibrin decomposition; assay type: biochemical; conditions: Table 2, pH 7.4, 37° C., read-out: Plasmin Fibrin I50 (concentration doubling fibrin dissolution time)
Method: (i) Determination of inhibition activity for fibrin decomposition
An inhibitor sample is dissolved in a 0.18 M borate-physiological salt buffer solution (pH=7.4) to make the total volume to 600 μl. To this buffer solution, 200 μl of a 0.2% bovine fibrinogen, 100 μl of a 0.3 casein unit/ml human plasmin solution, and 100 μl of a 50 unit/ml bovine thrombin solution, all dissolved in the above-mentioned buffer, are added at a temperature of 37° C. in a constant temperature bath. Then, the dissolution time of the fibrin mass formed above is determined.

human plasma kallikrein = human plasma kallikrein (Homo sapiens, UniProt P03952); assay: Anti-plasma kallikrein activity: inhibition of S-2302 decomposition; assay type: biochemical; conditions: Table 2; substrate S-2302, pH 7.8, 37° C.; read-out: Plasma Kallikrein S-2302 I50
Method: Determination of inhibition activity for S-2302 decomposition
(§1) An inhibitor sample is dissolved in a 0.05 M Tris-hydrochloric acid buffer solution (pH=7.8) to make the total volume to 400 μl. To this solution, 50 μl of a 2 mM S-2302 solution is added and the mixture is incubated at a temperature of 37° C. for 5 minutes in a constant temperature bath. Then, 50 μl of a 0.12 unit/ml human plasma kallikrein is added and the mixture is incubated at a temperature of 37° C. for 5 minutes. Thereafter, 50 μl of 50% acetic acid is added to terminate the reaction. The absorbance of the p-nitroaniline formed in the reaction mixture is measured at 405 nm. Thus, the concentration I50 (μmol) of the inhibitor sample, at which the absorbance is one half (i.e., 1/2) of that obtained in the absence of the inhibitor sample, is determined.

human urokinase = human urokinase (Homo sapiens, UniProt P00749); assay: biochemical; conditions: read-out: Urokinase S-2444 I50
Method: Determination of inhibition activity for S-2444 decomposition
as §1, with “solution (pH=8.8)” for “solution (pH=7.8)”, “a 1” for “a 2”, “mM S-2444” for “mM S-2302”, “a 500” for “a 0.12”, “human urokinase” for “human plasma kallikrein”

[5] = Table 2, bovine fibrinogen, pH 7.4, 37° C., read-out: Thrombin Fibrinogen I50 (concentration doubling coagulation time)
[6] = Table 2, substrate S-2444, pH 8.8, 37° C.

T3 sequence (P00747 581-810 limits assumed): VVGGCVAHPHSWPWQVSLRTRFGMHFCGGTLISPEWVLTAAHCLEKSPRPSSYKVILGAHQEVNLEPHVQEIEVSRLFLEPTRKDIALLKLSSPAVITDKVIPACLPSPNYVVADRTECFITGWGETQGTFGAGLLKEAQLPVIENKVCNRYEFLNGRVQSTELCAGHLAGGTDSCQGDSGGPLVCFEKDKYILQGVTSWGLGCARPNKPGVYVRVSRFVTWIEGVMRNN
T3 sequence (P00747 97-580 limits assumed): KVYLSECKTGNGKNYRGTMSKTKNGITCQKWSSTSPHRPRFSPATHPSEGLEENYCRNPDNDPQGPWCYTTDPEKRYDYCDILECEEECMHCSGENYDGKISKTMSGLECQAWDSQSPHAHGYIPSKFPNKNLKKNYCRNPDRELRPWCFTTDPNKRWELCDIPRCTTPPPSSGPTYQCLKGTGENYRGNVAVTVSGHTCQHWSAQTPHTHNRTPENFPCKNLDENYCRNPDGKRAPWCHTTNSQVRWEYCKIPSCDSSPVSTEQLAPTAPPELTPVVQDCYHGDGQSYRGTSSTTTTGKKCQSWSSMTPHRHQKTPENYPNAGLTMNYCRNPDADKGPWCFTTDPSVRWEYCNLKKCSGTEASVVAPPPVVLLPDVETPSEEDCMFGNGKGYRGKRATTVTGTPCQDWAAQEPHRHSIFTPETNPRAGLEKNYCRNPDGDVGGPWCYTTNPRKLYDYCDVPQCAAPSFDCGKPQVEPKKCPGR
Chain of human plasma kallikrein (P03952 391-638 limits assumed): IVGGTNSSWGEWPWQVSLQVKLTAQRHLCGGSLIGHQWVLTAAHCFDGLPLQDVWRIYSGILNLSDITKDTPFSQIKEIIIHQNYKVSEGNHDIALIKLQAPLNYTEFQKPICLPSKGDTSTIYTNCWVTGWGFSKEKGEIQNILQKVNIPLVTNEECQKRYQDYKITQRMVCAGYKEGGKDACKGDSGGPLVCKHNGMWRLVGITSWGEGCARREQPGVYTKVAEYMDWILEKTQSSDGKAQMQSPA
Chain of human plasma kallikrein (P03952 20-390 limits assumed): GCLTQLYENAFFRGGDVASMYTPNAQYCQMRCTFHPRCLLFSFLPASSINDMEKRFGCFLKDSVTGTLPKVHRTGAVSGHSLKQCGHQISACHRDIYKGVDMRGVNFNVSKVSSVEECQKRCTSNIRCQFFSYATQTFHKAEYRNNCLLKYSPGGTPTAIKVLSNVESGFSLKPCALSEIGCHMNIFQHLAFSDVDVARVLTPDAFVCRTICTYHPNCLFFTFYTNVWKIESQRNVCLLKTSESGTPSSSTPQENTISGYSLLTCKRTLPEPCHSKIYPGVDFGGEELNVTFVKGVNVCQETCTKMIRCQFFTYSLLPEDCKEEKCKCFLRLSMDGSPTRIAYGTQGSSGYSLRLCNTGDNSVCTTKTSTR

| IC50 (bovine thrombin [1]) | IC50 (bovine thrombin [2]; [5]) | IC50 (bovine trypsin) | IC50 (human plasmin [3]) | IC50 (human plasmin [4]) | IC50 (human plasma kallikrein) | IC50 (human urokinase; [6]) | IC50 (bovine thrombin [2]) | IC50 (human urokinase) | SMILES |
| --- | --- | --- | --- | --- | --- | --- | --- | --- | --- |
| > 1000 µM | > 500 µM | 2.3 µM | – | – | – | – | – | – | NC[C@H]1CC[C@H](C(=O)NC(Cc2cccc(Oc3ccccc3)c2)C(=O)Nc2ccnc(Cl)c2)CC1 (mixture of isomers) [Compound 9, N-(trans-4-aminomethylcylohexylcarbonyl)-3-phenoxy-DL-phenylalanine 4-(2-chloro)pyridylamide dihydrochloride] |
| > 1000 µM | – | > 150 µM | – | – | 600 µM | > 1000 µM | – | – | NC[C@H]1CC[C@H](C(=O)NC(Cc2cccc(Oc3ccccc3)c2)C(=O)O)CC1 (mixture of isomers) [Compound 58, N-(trans-4-aminomethylcyclohexylcarbonyl)-3-phenoxy-DL-phenylalanine] |
| – | – | 15 µM | 46 µM | 15 µM | 1.3 µM | – | > 100 µM | > 100 µM | Cc1ccc(NC(=O)C(Cc2cccc(Oc3ccccc3)c2)NC(=O)[C@H]2CC[C@H](CN)CC2)cc1 (stereo partly shown) [Compound 1] |
| – | – | > 15 µM | 360 µM | 190 µM | 11 µM | > 500 µM | > 500 µM | – | NC[C@H]1CC[C@H](C(=O)NC(Cc2cccc(Oc3ccccc3)c2)C(=O)Nc2ccccn2)CC1 (stereo partly shown) [Compound 6] |

The next lines start with the compound.

| SMILES | IC50 (bovine thrombin [1]) | IC50 (bovine thrombin [2]; [5]) | IC50 (bovine trypsin) | IC50 (human plasmin [3]) | IC50 (human plasmin [4]) | IC50 (human plasma kallikrein) | IC50 (human urokinase; [6]) | IC50 (bovine thrombin [2]) | IC50 (human urokinase) |
| --- | --- | --- | --- | --- | --- | --- | --- | --- | --- |
| CCOC(=O)C(Cc1cccc(Oc2ccccc2)c1)NC(=O)[C@H]1CC[C@H](CN)CC1 (mixture of isomers) [Compound 57, N-(trans-4-aminomethylcyclohexylcarbonyl)-3-phenoxy-DL-phenylalanine ethyl ester hydrochloride] | – | > 1000 µM | 25 µM | 260 µM | 110 µM | 5.7 µM | 350 µM | – | – |
| CCOC(=O)c1cccc(NC(=O)C(Cc2cccc(Oc3ccccc3)c2)NC(=O)[C@H]2CC[C@H](CN)CC2)c1 (stereo partly shown) [Compound 3] | – | > 100 µM | 2.3 µM | 31 µM | 11 µM | 1.2 µM | > 100 µM | – | – |
| NC[C@H]1CC[C@H](C(=O)NC(Cc2cccc(Oc3ccccc3)c2)C(=O)NCC(=O)c2ccccc2)CC1 (stereo partly shown) [Compound 15] | – | > 100 µM | > 150 µM | > 100 µM | > 100 µM | > 200 µM | > 100 µM | – | – |
| COC(=O)[C@@H](C)NC(=O)C(Cc1cccc(Oc2ccccc2)c1)NC(=O)[C@H]1CC[C@H](CN)CC1 (stereo partly shown) [Compound 16] | – | > 1000 µM | > 150 µM | > 1000 µM | > 1000 µM | > 1000 µM | > 500 µM | – | – |
| NC[C@H]1CC[C@H](C(=O)NC(Cc2cccc(Oc3ccccc3)c2)C(=O)N2CCC(C(=O)O)CC2)CC1 (stereo partly shown) [Compound 17] | – | > 1000 µM | > 150 µM | 1000 µM | 570 µM | > 1000 µM | > 500 µM | – | – |
| CCOC(=O)C1CCN(C(=O)C(Cc2cccc(Oc3ccccc3)c2)NC(=O)[C@H]2CC[C@H](CN)CC2)CC1 (stereo partly shown) [Compound 18] | – | > 100 µM | > 150 µM | 430 µM | > 100 µM | > 500 µM | > 1000 µM | – | – |
